Publication PMC2185891 (The Journal of Experimental Medicine, 1980)

Legend:
[1] = target: T1, N-formylated peptide receptor on U937 cells (Homo sapiens, UniProt P21462); experiment: fMet-Leu-[3H]Phe-binding assay on U937 cells; conditions: U937 cells incubated with cytochalasin B
T1 sequence (P21462 1-350): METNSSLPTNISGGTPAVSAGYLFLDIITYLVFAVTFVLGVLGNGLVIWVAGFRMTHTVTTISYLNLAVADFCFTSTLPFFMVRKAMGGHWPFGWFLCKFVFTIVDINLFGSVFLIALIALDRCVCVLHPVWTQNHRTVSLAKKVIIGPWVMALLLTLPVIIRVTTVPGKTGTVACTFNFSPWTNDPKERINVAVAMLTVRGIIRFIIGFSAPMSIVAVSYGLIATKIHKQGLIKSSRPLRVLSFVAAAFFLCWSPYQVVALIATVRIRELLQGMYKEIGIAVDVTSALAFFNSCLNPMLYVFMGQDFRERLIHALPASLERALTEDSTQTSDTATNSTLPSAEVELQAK

[2] = test system: human peripheral blood monocytes; conditions: ref M. C. Pike and R. Snyderman. Unpublished observation; cited from earlier work
U937 cells = experiment: Chemotaxis of U937 cells, modified Boyden chambers; format: cell-based, human; conditions: U937 cells cultured 48 h with lymphokines; Fig. 4

Compound: C=C1[C@@H](C)[C@H]2[C@H](Cc3ccccc3)NC(=O)[C@]23OC(=O)/C=C/[C@H](O)CCC[C@@H](C)C/C=C/[C@H]3[C@@H]1O [cytochalasin B]
- effect on amount of fMet-Leu-[3H]Phe bound [1]: did not affect

Compound: N-formyl-norleucyl-leucyl-phenylalanine [fNle-Leu-Phe]
- potency for human monocyte chemotaxis relative to fMet-Leu-Phe [2]: less than that of fMet-Leu-Phe
- relative chemotactic potency (U937 cells): approximately equipotent

Compound: fMet-Met-Met [N-formyl-methionyl-methionyl-methionine]
- potency for human monocyte chemotaxis relative to fMet-Leu-Phe [2]: less than that of fMet-Leu-Phe
- relative chemotactic potency (U937 cells): approximately equipotent
